The values that follow come from US20240285634A1, “COMPOUND AND METHOD FOR TREATING CHEMOTHERAPY-ASSOCIATED GASTROINTESTINAL SIDE EFFECTS” (ONQUALITY PHARMACEUTICALS CHINA LTD., priority 2021, published 2024).

Test [1] concerns Chemotherapeutic agent-caused diarrhea models of Balb/c mice. As to the kind of experiment: Relieving effect on diarrhea caused by a chemotherapeutic agent (Examples 1-201). In kind it is in vivo. An excerpt:
Construction of mouse animal models: Chemotherapeutic agent-caused diarrhea models of Balb/c mice were constructed according to the administration mode and frequency of the chemotherapeutic agent as shown in Table 3. After administration for several days, mice developed different extents of diarrhea symptoms (as shown in FIG. 1), which were similar to the conditions in human. Thus, chemotherapeutic agent-caused diarrhea models of mice are very good models to mimic diarrhea in human caused by the chemotherapeutic agent.
Balb/c mice were fed for 1 week, and then divided into groups. The experiment was divided into a control group, a chemotherapeutic agent group, and a group of the compound as shown in Formula I, each of which comprised 10 mice, to perform the administration experiment, for which the administration dosage, mode, time and frequency were shown in Table 3. The control group: being injected or intragastrically administered with the same solvent as that used in the group of the compound as shown in Formula I (the injection mode and time were shown in Table 3), and then being injected or intragastrically administered with the same solvent as that used in the chemotherapeutic agent group (the administration mode was shown in Table 3); the chemotherapeutic agent group: being injected or intragastrically administered with the same solvent as that used in the group of the compound as shown in Formula I (the administration mode and time were shown in Table 3), and then being injected or intragastrically administered with the chemotherapeutic agent (the type, administration mode and dosage were shown in Table 3); the group of the compound as shown in Formula I: being injected or intragastrically administered with the compound as shown in Formula I (the administration mode and time were shown in Table 3), and then being administered with the chemotherapeutic agent (the administration mode and dosage were shown in Table 3).
The scoring of diarrhea can refer to the method of Akinobu Kurita (Cancer Chemother Pharmacol 2000; 46:211-20.), Grade 0: normal feces; Grade 1: mild diarrhea, the stools is slightly wet and soft; Grade 2: moderate diarrhea, loose stools and mild perianal contamination; Grade 3: severe diarrhea, watery stools and accompanied by severe perianal staining (see FIG. 1). It is regarded as effective remission when the diarrhea grading of mice in the group of the compound as shown in Formula I is reduced compared with the average diarrhea grading of mice in the chemotherapeutic agent group.
The diarrhea grading of mice was observed and recorded every day. At the end of the experiment, the number of mice in the group of the compound as shown in Formula I whose diarrhea grading was lower than that of mice in the chemotherapeutic agent group was recorded. Table 3 lists various animal experiment combinations of chemotherapeutic agents and the compound as shown in Formula I, as well as the corresponding experimental results. (Relative remission rate %=the number of mice in the group of the compound as shown in Formula I whose diarrhea has been effectively relieved/the total number of mice in the group of the compound as shown in Formula I*100%. The establishment rate of diarrhea model in the chemotherapeutic agent group was 50%-70%, that is, about 5-7 of 10 mice developed diarrhea during the experiment, and there were cases of individual mice death or not developing diarrhea.)

The subject of test [2] is Chemotherapeutic agent-caused constipation models of Balb/c mice. In words: Relieving effect on constipation caused by a chemotherapeutic agent (Examples 202-364). Type of test: in vivo. The conditions noted are these: compound intraperitoneal injection 150 mg/kg single. The text has this: Construction of mouse animal models: Chemotherapeutic agent-caused constipation models of Balb/c mice were constructed according to the administration mode and frequency of the chemotherapeutic agent as shown in Table 4. […] Thus, chemotherapeutic agent-caused constipation models of mice are very good models to mimic constipation caused by the chemotherapeutic agent.
Balb/c mice were fed for 1 week, and then divided into groups. The experiment was divided into a control group, a chemotherapeutic agent group, and a group of the compound as shown in Formula I, each of which comprised 10 mice, to perform the administration experiment, for which the administration dosage, mode, time and frequency were shown in Table 4. The control group: being injected or intragastrically administered with the same solvent as that used in the group of the compound as shown in Formula I (the administration mode and time were shown in Table 4), and then being injected or intragastrically administered with the same solvent as that used in the chemotherapeutic agent group (the administration mode was shown in Table 4); the chemotherapeutic agent group: being injected or intragastrically administered with the same solvent as that used in the group of the compound as shown in Formula I (the administration mode and time was shown in Table 4), and then being injected or intragastrically administered with the chemotherapeutic agent (the type, administration mode and dosage were shown in Table 4); the group of the compound as shown in Formula I: being injected or intragastrically administered with the compound as shown in Formula I (the administration mode and time was shown in Table 4), and then being administered with the chemotherapeutic agent (the administration mode and dosage were shown in Table 4).
The feces reduction rate was calculated with reference to the method of Ji Eun Kim (Lab Anim Res. 2016 December; 32(4): 231-240.). Feces reduction rate (%)=(the control group−the chemotherapeutic agent group or the group of the compound as shown in Formula I)/the control group*100%
It is regarded as effective remission when the feces reduction rate of mice in the group of the compound as shown in Formula I is reduced compared with that in the chemotherapeutic agent group.
The feces amount of mice within 3 hours was observed and recorded every day. At the end of the experiment, the number of mice in the group of the compound as shown in Formula I whose feces reduction rate was lower than that of mice in the chemotherapeutic agent group was recorded. Table 4 lists various animal experiment combinations of chemotherapeutic agents and the compound as shown in Formula I, as well as the corresponding experimental results.

Structures can show the parent of a compound that is named as a salt.

For `CN1CCN(c2ccc(Nc3ncc4cc5n(c4n3)C3(CCCCC3)CNC5=O)nc2)CC1` [Compound I hydrochloride, Trilaciclib dihydrochloride], the Relative remission rate in test [1] (Ex 132, Fluorouracil 100 + irinotecan 200 mg/kg intraperitoneal single, compound 150 mg/kg intraperitoneal single 0.5 h before, cycle 8 days) worked out at 30%; in test [1] (Ex 133, Fluorouracil 100 + irinotecan 200 mg/kg intraperitoneal single, compound 150 mg/kg intraperitoneal single 6 h before, cycle 8 days) it was 60%; in test [1] (Ex 134, Fluorouracil 100 + irinotecan 200 mg/kg intraperitoneal single, compound 150 mg/kg intraperitoneal single 12 h before, cycle 8 days), 50%; in test [1] (Ex 161, Fluorouracil 50 + oxaliplatin 5 + irinotecan 50 + tetrahydrofolic acid 90 mg/kg intraperitoneal single, compound 150 mg/kg intraperitoneal single 0.5 h before, cycle 7 days), 70%; in test [1] (Ex 162, Fluorouracil 50 + oxaliplatin 5 + irinotecan 50 + tetrahydrofolic acid 90 mg/kg intraperitoneal single, compound 150 mg/kg intraperitoneal single 12 h before, cycle 7 days), 40%; in test [1] (Ex 194, Topotecan 10 mg/kg intraperitoneal single, compound 100 mg/kg oral single 4 h before, cycle 14 days), 50%. Further, the Relative remission rate in test [1] (Ex 200, Gemcitabine and carboplatin 120 mg/kg intraperitoneal single, compound 100 mg/kg oral single 4 h before, cycle 8 days) worked out at 70%. The “Relative remission rate (%)” value is reported as 20% in test [2] (Example 315, Fluorouracil 125 (F) and irinotecan 240 (I) mg/kg intraperitoneal injection single, 0.5 h before chemotherapeutic agent, cycle 10 days); 60% in test [2] (Example 316, Fluorouracil 125 (F) and irinotecan 240 (I) mg/kg intraperitoneal injection single, 4 h before chemotherapeutic agent, cycle 10 days); 40% in test [2] (Example 317, Fluorouracil 125 (F) and irinotecan 240 (I) mg/kg intraperitoneal injection single, 12 h before chemotherapeutic agent, cycle 10 days); 30% in test [2] (Example 343, Fluorouracil 100 (F), oxaliplatin 5 (O), irinotecan 100 (I) and tetrahydrofolic acid 100 (L) mg/kg intravenous injection single, 0.5 h before chemotherapeutic agent, cycle 8 days); 70% in test [2] (Example 344, Fluorouracil 100 (F), oxaliplatin 5 (O), irinotecan 100 (I) and tetrahydrofolic acid 100 (L) mg/kg intravenous injection single, 12 h before chemotherapeutic agent, cycle 8 days).
